Data taken from US20260272965A1, “SELEN[…] OF GLY[…] ANTI-INFLAMMATORY AND ANTIVIRAL PHARMACEUTICALS” (priority 2023, published 2026).
Entries after “also recorded” stand apart in the source; their conditions may differ.

Assays:
[1] = system: HSV-2 GFP+ (bHSV2-BAC38-S1); test: HSV-2 GFP+ infection of MRC5 cells, live-cell fluorescence imaging; format: cell-based; conditions: for inhibition of fluorescent HSV-2 GFP+ infected cells: 24 hours post infection, 125 μM (FIG. 5A)
Description: FIG. 5A. Fluorescent images of MRC5 cells infected with HSV-2 GFP+(bHSV2-BAC38-S1). Images taken at 0 and 24 hours post infection using an Incucyte S3 Live-Cell Analysis System. Acyclovir at a matched concentration (125 μM) was used as a positive control. FIG. 5B. Live cell imaging analysis of triplicate wells infected with HSV-2 GFP+. Wells were treated with either Vehicle (0.1% DMSO), Acyclovir 125 μM, or JR002 125 μM. Images were collected at 2 hour intervals for 48 hours post infection. Relative fluorescent intensity (RFI) calculated as the percent increase in fluorescence intensity relative to time 0 post infection. Bars represent the standard error of the mean.
JR002 is the selenoglycoside homolog of TE3048, the thioglycoside for which data for inhibition of HSV-1 was shown above. In FIG. 5A., the lower right quadrant represents high level cell damage, fluorescent HSV-2 GFP+ infected cells 24 hours post infection (24HPI), vehicle only.

[2] = system: SARS-CoV-2 (USA_WA1/2020); conditions: highest non-toxic dose; Vero E6, 72 hr
Description: In this assay, viral infection and replication leads to a loss of host cell viability, which is indirectly measured by an endpoint assessment of host cell viability after 72 hr. The CPE reduction assay indirectly monitors the ability of compounds to inhibit viral replication and infection through various molecular mechanisms, including direct inhibition of viral entry or enzymatic processes as well as acting on host pathways that modulate viral replication. Compounds with antiviral activity protect the host cells from the CPE of the virus, increasing viability.
Protocol: Vero E6 cells were premixed with SARS-CoV-2 for 5-10 min, dispensed into assay ready plates (pre-dispensed with compounds and controls). Cells and virus were incubated with compounds for 72 hr, then viability was assayed by Vero E6 host cell ATP content. 60 nL/well of compounds in DMSO was spotted into 384-well assay plates (Greiner, black clear bottom, tissue culture treated plates, #781091) by acoustic dispensing. In addition, 60 nL of the positive control Calpain inhibitor IV (stock concentration 2 mg/mL). 5 μL/well of media was dispensed into assay plates (MEM, 1% Pen/Strep/GlutaMax, 1% HEPES, 2% HI FBS). […] Luminescence signal was read on Perkin Elmer Envision or BMG CLARIOstar plate reader.

SARS-CoV-2 spike protein = conditions: previously demonstrated; blocks N-glycan processing at the oligomannose stage; cited from earlier work
HSV-1 = format: cell-based, Herpes simplex 1; conditions: Vero cells, 4 hour treatment, low multiplicity HSV-1

Structure (SMILES): CC(=O)NC1C(OC(C)=O)[C@H](OC(C)=O)C(COC(C)=O)O[C@H]1[Se]C/C=C(\C)CCC=C(C)C (stereo partly drawn) [JR002, Geranyl 2-acetamido-2-deoxy-3,4,6-tri-O-acetyl-1-seleno-3-D-glucopyranoside]
- inhibition of HSV-2 replication / infectivity ([1]; 125 μM, imaging for 48 hours post infection): potent inhibition of infectivity; also recorded: significantly inhibits
- inhibition of fluorescent HSV-2 GFP+ infected cells [1]: almost complete inhibition

Structure (SMILES): CC(=O)N[C@@H]1[C@@H](OC(C)=O)[C@H](OC(C)=O)[C@@H](COC(C)=O)O[C@H]1SC/C=C(\C)CCC=C(C)C [TE3048, N,O-tetra-acetyl-GlcNAc-ß-S-geranyl]
- inhibition of SARS-CoV-2 [2]: 60-70%

Structure (SMILES): Nc1nc2c(ncn2COCCO)c(=O)[nH]1 [Acyclovir, reference compound]
- inhibition of fluorescent HSV-2 GFP+ infected cells [1]: almost complete inhibition

Structure (SMILES): O=C1N[C@@H]2[C@@H](O)[C@@H](O)[C@H](O)[C@@H](CO)N2C1=O [kifunensine]
- inhibition of N-glycan maturation and infectivity (SARS-CoV-2 spike protein): Inhibition of N-glycan maturation and infectivity

Structure (SMILES): CC(=O)N[C@@H]1[C@@H](O)[C@H](O)[C@@H](CO)O[C@H]1SC/C=C(\C)CCC=C(C)C [TE3054, GlcNAc-ß-S-geranyl]
- inhibition of HSV-1 infectivity / plaque formation (HSV-1): inhibitory
